Our source for the GI50 and TGI values is PubChem BioAssay (NCI).

“And” between values parts separate entries of the source, which are not always exact repeats. Equal values may be shown once.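 Results reflect a 48-hour exposure of cells in 96-well plates to compound at five concentrations. At the GI50, growth is halved. At the TGI there is no net growth.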

Experiment in all cases: NCI tumour cell line growth inhibition, 48 h
Assay [1] has as its system EKVX NSCLC.
Assay [2] deals with KM12 colon.
The test system of assay [3] is MCF7 breast.
Assay [4] deals with BT-549 breast.
Assay [5] relates to 786-0 renal.
For assay [6], the system named is SK-MEL-2 melanoma.
Assay [7] has as its system UO-31 renal.
Assay [8] deals with UACC-62 melanoma.
Assay [9] deals with HCT-116 colon.
Assay [10] has as its system SK-MEL-5 melanoma.

As to `CCOC(=O)c1c(C)c2c(n1C)CSc1cc(S(=O)(=O)c3ccccc3)c(=O)[nH]c1-2`, the GI50 was 14.6 µM in [1]; 28.8 µM in assay [2]; 19.3 µM in assay [3]; 21.1 µM in assay [4]; 35.1 µM in assay [5]; 36.2 µM in assay [6]. Moreover, the GI50 is 17.4 µM in assay [7], 14.2 µM in assay [8], 22.7 µM in assay [9] and 13.2 µM in [10]. Besides, the TGI in assay [1] was 74.9 µM; in assay [2] it was over 100 µM; in assay [3], over 100 µM; in assay [4] it was over 100 µM; in [5], over 100 µM; in assay [6] it was over 100 µM. Moreover, the TGI in assay [7] is over 100 µM; in assay [8] it was 69.1 µM; in assay [9], 86.9 µM; in [10], 29.6 µM.
On to `Cc1oc2c(c1C(=O)c1ccccc1)C(=O)c1ccccc1C2=O`, for which the TGI in [1] amounted to 29.6 µM; in assay [2] it was 18.7 µM; in assay [3], 10.6 µM; in assay [4] it was 19.9 µM; in assay [5] it was 10.6 µM; in [6] it was 9.04 µM. Also, the TGI came to 22.4 µM in [7], 7.72 µM in [8], 8.76 µM in [9] and 4.15 µM in assay [10].
For `CC/C(=C(\c1ccc(O)cc1)c1ccc(OCCNC)cc1)c1ccccc1`, the GI50 in assay [1] was 2.41 µM and 2.04 µM; in [2], 1.7 µM and 1.64 µM and 1.81 µM; in assay [3], 0.788 µM and 0.427 µM; in assay [4] it was 2.39 µM and 1.84 µM and 3.33 µM; in assay [5], 1.73 µM and 1.72 µM; in [6], 2.04 µM and 1.85 µM and 2.1 µM. Also, the GI50 in assay [7] is 1.54 µM and 1.32 µM and 1.67 µM; in [8] it was 1.66 µM and 1.65 µM and 1.78 µM; in [9], 1.61 µM and 1.54 µM and 1.73 µM; in assay [10], 1.77 µM and 1.66 µM and 1.71 µM. Also, the TGI in [1] was 8.86 µM and 5.59 µM; in [2], 3.15 µM and 3.14 µM and 3.49 µM; in assay [3], 2.84 µM and 2.83 µM and 2.81 µM; in assay [4] it was 5.61 µM and 3.77 µM and 8.64 µM; in assay [5], 3.13 µM and 3.19 µM and 3.35 µM; in assay [6], 4.02 µM and 3.65 µM and 3.85 µM. Moreover, the TGI in assay [7] was 4.41 µM and 3 µM and 3.57 µM; in [8], 3.41 µM and 3.24 µM and 3.44 µM; in [9], 2.98 µM and 2.95 µM and 3.22 µM; in assay [10], 3.17 µM and 3.07 µM.
With `CCOC(=O)c1cc(C(=O)c2cc(OC)cc(OC)c2)n2ncccc12`, the GI50 in assay [1] was 4.74 µM; in assay [3], 1.31 µM; in assay [4], 1.22 µM; in [5], 11.4 µM; in [6], 0.738 µM; in assay [7] it was 5.68 µM. For the same compound, the GI50 was 0.523 µM in assay [8] and 0.508 µM in [10]. In addition, the TGI in assay [1], in assay [3], in [4], in assay [5], in assay [6] and in [7] was over 100 µM throughout. The TGI in assay [8] and in assay [10] was over 100 µM throughout.
For the compound `N#Cc1c(NC(=O)CCC(=O)O)ccc2ccccc12`, the TGI in assay [1], in [2], in [3], in assay [4], in [5] and in [6] was over 100 µM throughout. Further, the TGI in assay [7], in assay [8], in [9] and in assay [10] was over 100 µM in each case.
Take `O=S(=O)(Nc1ccc(Cl)c(C(F)(F)F)c1)c1ccc(-c2cnc(C3CC3)o2)cc1`: the GI50 is 1.34 µM in assay [1]; 0.187 µM in [2]; 0.132 µM in [3]; 0.128 µM in assay [4]; 1.1 µM in assay [5]; 0.343 µM in [6]. In addition, the GI50 in assay [7] was 0.871 µM; in assay [8] it was 0.203 µM; in assay [9], 0.187 µM; in assay [10], 0.296 µM. The TGI turned out to be 9.29 µM in assay [1]; 7.36 µM in assay [2]; 5.23 µM in [3]; 4.79 µM in [4]; 3.58 µM in assay [5]; 3.67 µM in [6]. For the same compound, the TGI in [7] amounted to 6.25 µM; in assay [8] it was 2.2 µM; in assay [9], 4.14 µM; in [10], 1.75 µM.
Consider `CS(=O)(=O)c1ccc(C(F)(F)F)cc1NC(=O)Nc1cnc(Oc2ccc(-c3cc(Cl)cnc3N)cc2)nc1`, for which the GI50 was 2.57 µM in [1]; 2.18 µM in assay [3]; 2.26 µM in assay [4]; 2.4 µM in assay [5]; 2.34 µM in assay [6]; 1.86 µM in [7]. Also, the GI50 is 1.82 µM in assay [8], 2.17 µM in assay [9] and 1.87 µM in assay [10]. The TGI is over 37.5 µM in assay [1]; 3.6 µM in assay [2]; 7.35 µM in [3]; 6.5 µM in [4]; 7 µM in assay [5]; 5.03 µM in assay [6]. Besides, the TGI in [7] was found to be 6.72 µM; in assay [8], 4.72 µM; in assay [9], 4.82 µM; in assay [10] it was 3.87 µM.
In the case of `COc1cc(/C=C2\C(=O)N(c3c(Cl)cccc3Cl)c3ccccc32)cc(OC)c1O`, the GI50 in assay [1] was 5.23 µM; in [2], 0.654 µM; in assay [3], 0.524 µM; in assay [4] it was 3.2 µM; in assay [5], 1.49 µM; in assay [6], 1.23 µM. Besides, the GI50 is 0.769 µM in assay [7], 0.594 µM in assay [8], 0.292 µM in [9] and 0.375 µM in assay [10]. Moreover, the TGI in [1] was 25.1 µM; in assay [2], 2.69 µM; in assay [3], 9.26 µM; in [4] it was 18.4 µM; in assay [5], 17.4 µM; in assay [6], 15.4 µM. The TGI in [7] came out at 12.3 µM; in assay [8] it was 13.2 µM; in assay [9], 4.83 µM; in assay [10], 6.26 µM.
With `O=[N+]([O-])c1ccc2nc(N/N=C/c3ccc(O)cc3)sc2c1`, the GI50 in [1] was 7.37 µM; in assay [2], 2.72 µM; in assay [3] it was 3.17 µM; in assay [4], 12.3 µM; in assay [5] it was 6.43 µM; in assay [6] it was 4 µM. The GI50 was 8.22 µM in [7], 4.46 µM in assay [8], 2.89 µM in assay [9] and 2.88 µM in [10]. In addition, the TGI was over 100 µM in assay [1]; 17.2 µM in assay [2]; 70.5 µM in [3]; over 100 µM in [4]; 60.5 µM in assay [5]; 25.7 µM in assay [6]. For the same compound, the TGI is over 100 µM in [7], 37 µM in [8], over 100 µM in assay [9] and 11.1 µM in assay [10].
For the compound `O=[N+]([O-])c1ccc(N(CCO)CCO)c2c1no[n+]2[O-]`, the GI50 was 1.8 µM in assay [1]; 1.16 µM in assay [2]; 1.21 µM in assay [3]; 1.18 µM in [4]; 1.8 µM in [5]; 1.8 µM in [6]. Besides, the GI50 in assay [7] was 2.01 µM; in [8], 1.24 µM; in [9], 1.1 µM; in [10] it was 1.09 µM. The TGI in assay [1] turned out to be 6.66 µM; in [2], 2.53 µM; in assay [3], 10.2 µM; in assay [4], 4 µM; in [5] it was 4.21 µM; in assay [6], 4.78 µM. Besides, the TGI stood at 8.65 µM in assay [7], 3.56 µM in assay [8], 3.03 µM in assay [9] and 2.31 µM in [10].
Take `Cc1ccnc2c1NC(=O)c1cccnc1N2C1CC1`: the GI50 in [1], in assay [2], in assay [3], in assay [4], in assay [5] and in assay [6] was over 100 µM each time. The GI50 in assay [7] was 48.7 µM; in assay [8], over 100 µM; in assay [9], over 100 µM; in [10], over 100 µM. Also, the TGI in assay [1], in assay [2], in assay [3], in [4], in [5] and in assay [6] was over 100 µM each time. Further, the TGI in assay [7], in assay [8], in assay [9] and in [10] was over 100 µM throughout.
Take `N#CC1=C(N)Oc2c(sc3c(F)cccc23)C1c1ccc([N+](=O)[O-])cc1` (stereo not given): the GI50 in [1] was 0.432 µM; in [2] it was 0.141 µM; in assay [3] it was 0.0367 µM; in assay [4] it was 0.242 µM; in assay [5], 0.337 µM; in [6], 0.17 µM. Also, the GI50 in assay [7] is 0.197 µM; in [8] it was 0.0863 µM; in [9], 0.169 µM; in assay [10], 0.165 µM. Moreover, the TGI in assay [1] was found to be 2.63 µM; in assay [2], 1.27 µM; in assay [3] it was 1.54 µM; in [4] it was 1.3 µM; in assay [5], 1.46 µM; in assay [6], 1.23 µM. Moreover, the TGI in assay [7] was found to be 1.03 µM; in [8] it was 1.33 µM; in assay [9], 1.33 µM; in assay [10] it was 1.24 µM.
As for `COc1ccc(/C=N/NC(=O)O)cc1`, the TGI in [1], in [2], in [3], in assay [4], in [5] and in [6] was over 100 µM each time. The TGI in [7], in [8], in assay [9] and in assay [10] was over 100 µM each time.
As to `C=CC(=O)Nc1cc2c(Nc3ccc(OCc4ccccn4)c(Cl)c3)ncnc2cc1OCCN1CCOCC1`, the GI50 in [1] was 0.775 µM; in assay [2], 5.04 µM; in assay [4], 8.86 µM; in assay [5], 1.7 µM; in assay [6], 6.11 µM; in [7], 0.646 µM. Besides, the results for the GI50 in assay [8], in assay [9] and in assay [10] were 2.85 µM, 2.99 µM and 3.8 µM, respectively. Besides, the TGI in [1] is over 73.2 µM; in assay [2] it was over 100 µM; in assay [3], over 100 µM; in assay [4], 37.4 µM; in [5], over 83.3 µM; in [6], 37.5 µM. For the same compound, the TGI is over 100 µM in [7], 17.4 µM in [8], 14.5 µM in [9] and 14.3 µM in assay [10].
With `O=C1C(Nc2ccccn2)=C(I)C(=O)c2ncccc21`, the GI50 was 1.62 µM in assay [1]; 1.65 µM in [2]; 0.396 µM in [3]; 1.54 µM in assay [4]; 1.9 µM in assay [5]; 1.76 µM in assay [6]. Further, the GI50 is 1.28 µM in assay [8], 0.372 µM in [9] and 1.11 µM in [10]. The TGI stood at 3.3 µM in assay [1]; 3.42 µM in [2]; 2.07 µM in assay [3]; 3.14 µM in [4]; 4.68 µM in [5]; 3.51 µM in assay [6]. In addition, the TGI in [8] came out at 2.67 µM; in assay [9] it was 1.61 µM; in assay [10] it was 2.31 µM.
For `COc1ccc2cc(C(=O)/C=C/c3ccc(OC)c(OC)c3)ccc2c1`, the GI50 in [1] was 22 µM; in assay [2] it was 4.82 µM; in [3] it was 1.43 µM; in assay [4] it was 21.1 µM; in [5], 18.8 µM; in assay [7], 23.3 µM. For the same compound, the GI50 in assay [8] was 16.2 µM; in assay [9], 2.69 µM; in assay [10], 2.82 µM. Besides, the TGI in [1] is 68.4 µM; in assay [2], 32.1 µM; in [3] it was 7.33 µM; in [4] it was 68.7 µM; in assay [5], 35.4 µM; in assay [7], 49.3 µM. The results for the TGI in assay [8], in [9] and in assay [10] were 39.2 µM, 10.3 µM and 16.6 µM, respectively.
